pIC50: −log10 of the molar value.

wt human LRRK2, catalytic site, sequence (Q5S007 1879-2138): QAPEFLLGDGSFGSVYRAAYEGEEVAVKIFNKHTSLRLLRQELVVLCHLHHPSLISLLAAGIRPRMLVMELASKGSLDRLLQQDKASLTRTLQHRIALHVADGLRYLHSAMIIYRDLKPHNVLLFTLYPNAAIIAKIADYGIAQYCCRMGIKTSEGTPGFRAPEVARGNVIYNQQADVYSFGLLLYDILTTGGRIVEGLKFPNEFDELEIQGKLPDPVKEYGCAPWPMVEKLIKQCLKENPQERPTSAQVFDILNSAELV

In this experiment the target is wt human LRRK2, catalytic site (Homo sapiens (Human), UniProt Q5S007). The experiment can be described thus: TR-FRET LanthaScreen Tb Kinase Activity Assay (LRRK2 kinase inhibition). The conditions noted are these: 2 nM wt human LRRK2, 400 nM fluorescein-ERM (LRRKtide) peptide, 38 μM ATP, 120 minutes at room temperature. It counts as biochemical. The method, then:
The compounds in Table 1 were tested for their inhibitory effect on LRRK2 kinase according to the following procedures.
The protocol for basic TR-FRET LanthaScreen Tb Kinase Activity Assay inhibitor studies were as follows. LanthaScreen Kinase Activity Assays (ThermoFisher/USA) to evaluate inhibitors were performed by addition of 100 nL of test compound in corresponding DMSO dilutions/5 μL of kinase/fluorescein-ERM(LRRKtide) peptide mixture, 5 μL of ATP into 384 well small volume plates. After incubation for 120 minutes at room temperature, the detection reagents containing Tb-anti-pLRRKtide antibody were added to monitor phosphrylation level of peptide. Then, after 60 min minutes incubation at room temperature plates were read in Envision. Data analysis of emission ratios was according to LanthaScreen Tb Kinase Activity Assay protocol.
Kinase and assay components were adjusted to final concentrations according to the kit protocol. For LRRK2: 2 nM wt human LRRK2, catalytic site, catalytic site (ThermoFisher/USA), 400 nM peptide, 38 μM ATP in 1× Kinase Buffer A.
Basic protocol for TR-FRET LanthaScreen Tb Kinase Activity Assay inhibitor studies involved two steps: • Enzymatic step: Addition of 100 nL of test compound in corresponding DMSO dilutions, 5 μL of kinase/substrate mixture, 5 μL of ATP into 384 well small volume plates. Incubation for 120 minutes at room temperature. • Detection step: Addition of 10 μL EDTA & antibody, read plate after 60 minutes. Data analysis of emission ratios according to KinEASE assay protocol.
Kinase and assay components were adjusted to final concentrations according to the kit protocol.
In the table below, activity is provided as follows: +++=IC50 less than 50 nM; ++=IC50 between 50 nM and 200 nM; +=IC50>=200 nM
A general note: Time-resolved FRET reads energy transfer from a long-lived donor to a nearby acceptor.
`CNc1nc(Nc2ccc(C3=CCOCC3)c3c2cnn3C)ncc1C(F)(F)F` [Example 86, N2-(7-(3,6-dihydro-2H-pyran-4-yl)-1-methyl-11H-indazol-4-yl)-N4-methyl-5-(trifluoromethyl)pyrimidine-2,4-diamine] gave a pIC50 greater than 7.30.
As to `CCS(=O)(=O)CCn1ncc2c(Nc3ncc(C(F)(F)F)c(NC4CC4)n3)cccc21` [Example 171, N^4-cyclopropyl-N^2-(1-(2-(ethylsulfonyl)ethyl)-1H-indazol-4-yl)-5-(trifluoromethyl)pyrimidine-2,4-diamine], the pIC50 was greater than 7.30.
As for `CNc1nc(Nc2ccc(C3CCOCC3)c3c2cnn3C)ncc1C(F)(F)F` [Example 88, N4-methyl-N2-(1-methyl-7-(tetrahydro-2H-pyran-4-yl)-1H-indazol-4-yl)-5-(trifluoromethyl)pyrimidine-2,4-diamine], the pIC50 was greater than 7.30.
For `CCn1ncc2c(Nc3ncc(C(F)(F)F)c(NC)n3)cccc21` [Example 98, N2-(1-ethyl-1H-indazol-4-yl)-N4-methyl-5-(trifluoromethyl)pyrimidine-2,4 diamine], the negative logarithm of the IC50 (pIC50) was greater than 7.30.
`CNc1nc(Nc2cc(/C=C/C(=O)N3CCOCC3)cc3c2cnn3C)ncc1C(F)(F)F` [Example 46, (E)-3-(1-methyl-4-((4-(methylamino)-5-(trifluoromethyl)pyrimidin-2-yl)amino)-1H-indazol-6-yl)-1-morpholinoprop-2-en-1-one]: the pIC50 is greater than 7.30.
Under `N#CCn1ncc2c(Nc3ncc(C(F)(F)F)c(NCC(F)(F)F)n3)cccc21` [Example 106, 2-(4-((4-((2,2,2-trifluoroethyl)amino)-5-(trifluoromethyl)pyrimidin-2-yl)amino)-1-indazol-1-yl)acetonitrile] stands greater than 7.30; under `CC(C)(C)n1ncc2c(Nc3ncc(C(F)(F)F)c(NC4CC4)n3)cccc21` [Example 196, N^2-(1-tert-butylindazol-4-yl)-N^4-cyclopropyl-5-(trifluoromethyl)pyrimidine-2,4-diamine], greater than 7.30.
Under `CNc1nc(Nc2cc(C#N)cc3c2cnn3C)ncc1C(F)(F)F` [Example 44, 1-methyl-4-((4-(methylamino)-5-(trifluoromethyl)pyrimidin-2-yl)amino)-1H-indazole-6-carbonitrile] stands greater than 7.30; under `CNc1nc(Nc2c(F)ccc3c2cnn3C)ncc1C(F)(F)F` [Example 38, N2-(5-fluoro-1-methyl-1H-indazol-4-yl)-N4-methyl-5-(trifluoromethyl) pyrimidine-2,4-diamine], 6.70 to 7.30; under `O=S(=O)(CCn1ncc2c(Nc3ncc(C(F)(F)F)c(NC4CC4)n3)cccc21)C1CC1` [Example 170, N^4-cyclopropyl-N^2-(1-(2-(cyclopropylsulfonyl)ethyl)-1H-indazol-4-yl)-5-(trifluoromethyl)pyrimidine-2,4-diamine], greater than 7.30.
Under `CNc1nc(Nc2c(F)ccc3nn(C)cc23)ncc1C(F)(F)F` [Example 41, N2-(5-fluoro-2-methyl-2H-indazol-4-yl)-N4-methyl-5-(trifluoromethyl) pyrimidine-2,4-diamine] stands no more than 6.70; under `O=S(=O)(C1CC1)n1ncc2c(Nc3ncc(C(F)(F)F)c(NCCF)n3)cccc21` [Example 137, N^2-(1-(cyclopropylsulfonyl)-1H-indazol-4-yl)-N^4-(2-fluoroethyl)-5-(trifluoromethyl) pyrimidine-2,4-diamine], greater than 7.30.
The molecule `CNc1nc(Nc2ccc(OC)c3[nH]ncc23)ncc1C(F)(F)F` [Example 28, N2-(7-methoxy-1H-indazol-4-yl)-N4-methyl-5-(trifluoromethyl)pyrimidine-2,4-diamine] gave a pIC50 greater than 7.30.
Under `CCNc1nc(Nc2cccc3c2cnn3CC(C)(C)O)ncc1C(F)(F)F` [Example 164, 1-[4-[[4-(ethylamino)-5-(trifluoromethyl)pyrimidin-2-yl]amino]indazol-1-yl]-2-methyl-propan-2-ol] stands greater than 7.30; under `CNc1nc(Nc2c(C)ccc3[nH]ncc23)ncc1C(F)(F)F` [Example 23, N4-methyl-N2-(5-methyl-1H-indazol-4-yl)-5-(trifluoromethyl)pyrimidine-2,4-diamine], 6.70 to 7.30.
Under `CNc1nc(Nc2ccc3cn(C)nc3c2C)ncc1C(F)(F)F` [Example 19, N2-(2,7-dimethyl-2H-indazol-6-yl)-N4-methyl-5-(trifluoromethyl)pyrimidine-2,4-diamine] stands greater than 7.30; under `CS(=O)(=O)CCn1ncc2c(Nc3ncc(C(F)(F)F)c(NCC4CC4)n3)cccc21` [Example 187, N^4-(cyclopropylmethyl)-N^2-(1-(2-(methylsulfonyl)ethyl)-1H-indazol-4-yl)-5-(trifluoromethyl)pyrimidine-2,4-diamine], greater than 7.30; under `CCOc1nc(Nc2cccc3c2cnn3C(C)(C)C#N)nc2[nH]cc(Cl)c12` [Example 162, 2-[4-[(5-chloro-4-ethoxy-7H-pyrrolo[2,3-d]pyrimidin-2-yl)amino]indazol-1-yl]-2-methyl-propanenitrile], greater than 7.30.
Under `CNc1nc(Nc2cccc3c2cnn3CCC(=O)N2CCOCC2)ncc1C(F)(F)F` [Example 77, 3-(4-((4-(methylamino)-5-(trifluoromethyl)pyrimidin-2-yl)amino)-1H-indazol-1-yl)-1-morpholinopropan-1-one] stands greater than 7.30; under `CNc1nc(Nc2ccc(C)c3[nH]ncc23)ncc1C(F)(F)F` [Example 26, N4-methyl-N2-(7-methyl-1H-indazol-4-yl)-5-(trifluoromethyl)pyrimidine-2,4-diamine], greater than 7.30; under `CNc1nc(Nc2ccc3cn[nH]c3c2C)ncc1C(F)(F)F` [Example 5, N4-methyl-N2-(7-methyl-1H-indazol-6-yl)-5-(trifluoromethyl)pyrimidine-2,4-diamine], greater than 7.30.
`CCNc1nc(Nc2ccc(F)c3c2cnn3CC(C)(C)O)nc2[nH]nc(C)c12` [Example 205, 1-[4-[[4-(ethylamino)-3-methyl-1H-pyrazolo[3,4-d]pyrimidin-6-yl]amino]-7-fluoro-indazol-1-yl]-2-methyl-propan-2-ol] showed a negative logarithm of the IC50 (pIC50) greater than 7.30.
Under `CCn1ncc2c(Nc3ncc(C(F)(F)F)c(NC4CC4)n3)cccc21` [Example 99, N4-cyclopropyl-N2-(1-ethyl-1H-indazol-4-yl)-5-(trifluoromethyl)pyrimidine-2,4-diamine] stands greater than 7.30; under `Cc1n[nH]c2nc(Nc3cccc4c3cnn4CCS(C)(=O)=O)nc(NC3CC3)c12` [Example 182, N^4-cyclopropyl-3-methyl-N^6-[1-(2-methylsulfonylethyl)indazol-4-yl]-1H-pyrazolo[3,4-d]pyrimidine-4,6-diamine], greater than 7.30; under `CNc1nc(Nc2cc3[nH]ncc3cc2F)ncc1C(F)(F)F` [Example 114, N^2-(5-fluoro-1H-indazol-6-yl)-N^4-methyl-5-(trifluoromethyl)pyrimidine-2,4-diamine], greater than 7.30.
Under `CS(=O)(=O)CCn1ncc2c(Nc3ncc(C(F)(F)F)c(NC4CC4)n3)cccc21` [Example 139, N^4-cyclopropyl-N^2-(1-(2-(methylsulfonyl)ethyl)-1H-indazol-4-yl)-5-(trifluoromethyl)pyrimidine-2,4-diamine] stands greater than 7.30.
Under `CNc1nc(Nc2cccc3c2cnn3CC(C)(C)O)nc2[nH]cnc12` [Example 184, 2-methyl-1-[4-[[6-(methylamino)-9H-purin-2-yl]amino]indazol-1-yl]propan-2-ol] stands greater than 7.30; under `CNc1nc(Nc2c(F)ccc3[nH]ncc23)ncc1C(F)(F)F` [Example 22, N2-(5-fluoro-1H-indazol-4-yl)-N4-methyl-5-(trifluoromethyl)pyrimidine-2,4-diamine], 6.70 to 7.30; under `CNc1nc(Nc2ccc(/C(C)=C/C(=O)N3CCOCC3)c3c2cnn3C)ncc1C(F)(F)F` [Example 59, (E)-3-(1-methyl-4-((4-(methylamino)-5-(trifluoromethyl)pyrimidin-2-yl)amino)-1H-indazol-7-yl)-1-morpholinobut-2-en-1-one], greater than 7.30.
On to `CNc1nc(Nc2cc(C#N)cc3[nH]ncc23)ncc1C(F)(F)F` [Example 49, 4-((4-(methylamino)-5-(trifluoromethyl)pyrimidin-2-yl)amino)-1H-indazole-6-carbonitrile], for which the pIC50 is greater than 7.30.
Molecule `CNc1nc(Nc2c(C)[nH]c3ccccc23)ncc1C(F)(F)F` [Example 63, N4-methyl-N2-(2-methyl-1H-indol-3-yl)-5-(trifluoromethyl)pyrimidine-2,4-diamine] gave a negative logarithm of the IC50 (pIC50) of 6.70 to 7.30.
Under `CNc1nc(Nc2cc3[nH]ncc3cc2C)ncc1C(F)(F)F` [Example 2] stands greater than 7.30; under `CS(=O)(=O)CCn1ncc2c(Nc3ncc(C(F)F)c(NC4CC4)n3)cccc21` [Example 192, N^4-cyclopropyl-5-(difluoromethyl)-N^2-[1-(2-methylsulfonylethyl)indazol-4-yl]pyrimidine-2,4-diamine], greater than 7.30.

As a reminder, the pIC50 is the IC50 on a negative log10 scale, so that one unit is a factor of ten. Higher therefore signals a small IC50.

For the origin of these results see patent US20240174647A1 (NEURON23, INC., priority 2022, published 2024).
